Values joined by “and” are separate entries in the source; they are usually repeats but may differ in a detail not shown here. Equal entries are not always repeated. After the bases stand the sugars from the 5' end (letter, count) and the backbone: PS all phosphorothioate, else s phosphorothioate and o phosphodiester by linkage. Methylation of C is not given here. k = constrained ethyl (cEt); d = 2'-deoxy (DNA)
Target: MALAT1
Conditions: ASO, A431, 0.005 µM

Sequence	target mRNA inhibition
GACCATCCCAAAATGC (sugars k3 d10 k3, PS)	8%
GACGCAATTCTCCCTG (sugars k3 d10 k3, PS)	27%
GACTGAATATGAACCA (sugars k3 d10 k3, PS)	51% and 76%
GACTTGGCAGTCTGCC (sugars k3 d10 k3, PS)	10%
GACTTTCTCCCCCAAC (sugars k3 d10 k3, PS)	6%
GAGAAAGTGCCATGGT (sugars k3 d10 k3, PS)	26%
GAGATACCTGTCTGAG (sugars k3 d10 k3, PS)	40%
GAGCATTGGAGATCAG (sugars k3 d10 k3, PS)	29%
GAGGGACAGTAGGTAT (sugars k3 d10 k3, PS)	19%
GAGGGAGTTGAGGCAA (sugars k3 d10 k3, PS)	24%
GAGGGCCTCTATTGCC (sugars k3 d10 k3, PS)	14%
GAGTATGCTGATAAAC (sugars k3 d10 k3, PS)	37%
GAGTGAAGTGTACTAT (sugars k3 d10 k3, PS)	62% and 77%
GAGTTCAAGTGGCCTT (sugars k3 d10 k3, PS)	17%
GATCACCTTCCGCCGC (sugars k3 d10 k3, PS)	6%
GATCATAATCTCCCAC (sugars k3 d10 k3, PS)	41%
GATCTTGAATTACTTC (sugars k3 d10 k3, PS)	49%
GATGTGATTTTTAACC (sugars k3 d10 k3, PS)	52% and 56%
GATTAATGTAGTGTAA (sugars k3 d10 k3, PS)	23%
GATTGTAAGCATTTAA (sugars k3 d10 k3, PS)	54% and 67%
GCAAGGTCTCATACAC (sugars k3 d10 k3, PS)	48% and 59%
GCAATTCAAAATCCTG (sugars k3 d10 k3, PS)	51%
GCACATCATGCTATTC (sugars k3 d10 k3, PS)	45%

Sequence	target mRNA inhibition
GCACGGAAATTTTTCT (sugars k3 d10 k3, PS)	-3%
GCACGGGCTGTCTGCT (sugars k3 d10 k3, PS)	-12%
GCACTAAAGATCACTG (sugars k3 d10 k3, PS)	23%
GCACTGATCACTTTAG (sugars k3 d10 k3, PS)	63% and 47% and 50%
GCAGCGGGATCAGAAC (sugars k3 d10 k3, PS)	34%
GCAGTAGGGCTTCTCA (sugars k3 d10 k3, PS)	-8%
GCAGTTTCTATAGTAG (sugars k3 d10 k3, PS)	45%
GCATAAAGCTGAAATC (sugars k3 d10 k3, PS)	4%
GCCAACTTGGAAGTTG (sugars k3 d10 k3, PS)	-19%
GCCACTCAAATGCCTA (sugars k3 d10 k3, PS)	18%
GCCAGTGGCCCACTCT (sugars k3 d10 k3, PS)	-8%
GCCATCTACTATTTCT (sugars k3 d10 k3, PS)	38%
GCCCCCTCAGCAGAAG (sugars k3 d10 k3, PS)	25%
GCCCCTGCGCTGGCTG (sugars k3 d10 k3, PS)	12%
GCCCGCTTTCCCCCTT (sugars k3 d10 k3, PS)	-29%
GCCGTTGGCTGCCAGT (sugars k3 d10 k3, PS)	-8%
GCCTACCACTCTAAGA (sugars k3 d10 k3, PS)	29%
GCCTACTCAAGCTCTT (sugars k3 d10 k3, PS)	20%
GCCTCAATGCCTACCG (sugars k3 d10 k3, PS)	-11%
GCCTGCTACCTTCATC (sugars k3 d10 k3, PS)	36%
GCCTGGAATTATTATA (sugars k3 d10 k3, PS)	31%
GCCTTTAGGATTCTAG (sugars k3 d10 k3, PS)	30%
GCCTTTATCACTCAGC (sugars k3 d10 k3, PS)	29%

Sequence	target mRNA inhibition
GCCTTTGTGAGGGAGG (sugars k3 d10 k3, PS)	-23%
GCCTTTTCTAACATAG (sugars k3 d10 k3, PS)	-1%
GCGAGTTCAAGTGGCC (sugars k3 d10 k3, PS)	-5%
GCGCCGGGCTTCTGCG (sugars k3 d10 k3, PS)	29%
GCGGTTTCCTCAAGCT (sugars k3 d10 k3, PS)	20%
GCTAAGCAATATCTTA (sugars k3 d10 k3, PS)	32%
GCTACTTAGCTGTGGT (sugars k3 d10 k3, PS)	28%
GCTAGGGAAAAGTGGT (sugars k3 d10 k3, PS)	5%
GCTCGCCTCCTCCGTG (sugars k3 d10 k3, PS)	27%
GCTCGCTTGCTCCTCA (sugars k3 d10 k3, PS)	39%
GCTCTGTAGTCCTTTC (sugars k3 d10 k3, PS)	42%
GCTGAAATTGTCTCAA (sugars k3 d10 k3, PS)	45%
GCTGAGGCTTCCCGGC (sugars k3 d10 k3, PS)	15%
GCTGATAAACTCACTG (sugars k3 d10 k3, PS)	55% and 65%
GCTGCAAACTTTAGAC (sugars k3 d10 k3, PS)	-9%
GCTTACAGATTTGCTG (sugars k3 d10 k3, PS)	8%
GCTTATGGAACTTGAA (sugars k3 d10 k3, PS)	10%
GCTTGGGAAATCTTAG (sugars k3 d10 k3, PS)	7%
GCTTTAAATGACGCAA (sugars k3 d10 k3, PS)	-22%
GGAAGATTAAAGTGTG (sugars k3 d10 k3, PS)	21%
GGACAGCTAAGATAGC (sugars k3 d10 k3, PS)	22%
GGACGGTTGAGAAGTG (sugars k3 d10 k3, PS)	-4%
GGAGGCAAAAAGTAGT (sugars k3 d10 k3, PS)	9%

Sequence	target mRNA inhibition
GGAGTTACTTGCCAAC (sugars k3 d10 k3, PS)	24%
GGAGTTGAGGCAAGTC (sugars k3 d10 k3, PS)	41%
GGATTAATGTAGTGTA (sugars k3 d10 k3, PS)	86% and 96%
GGATTTGAACCCCGTC (sugars k3 d10 k3, PS)	30%
GGCAAAAAGTAGTTCT (sugars k3 d10 k3, PS)	31%
GGCAAATTAATGGCCT (sugars k3 d10 k3, PS)	25%
GGCCGTTGGCTGCCAG (sugars k3 d10 k3, PS)	21%
GGCCTTTTAAAGTAGA (sugars k3 d10 k3, PS)	28%
GGCGGACTTTCTCCCC (sugars k3 d10 k3, PS)	-17%
GGCTGACACTTCTCTT (sugars k3 d10 k3, PS)	52% and 64%
GGGAATACTCTTCCAA (sugars k3 d10 k3, PS)	14%
GGGACGGTTGAGAAGT (sugars k3 d10 k3, PS)	7%
GGGAGTTACTTGCCAA (sugars k3 d10 k3, PS)	10%
GGGAGTTGAGGCAAGT (sugars k3 d10 k3, PS)	6%
GGTAATTACTCTTGAT (sugars k3 d10 k3, PS)	50%
GGTCTAGGATCCTCTA (sugars k3 d10 k3, PS)	23%
GGTGAATTCAACTGGA (sugars k3 d10 k3, PS)	49%
GGTTAGGTATGAGCTT (sugars k3 d10 k3, PS)	8%
GGTTATAGCTTGACAA (sugars k3 d10 k3, PS)	78% and 95%
GGTTTAAGTTGGTTTT (sugars k3 d10 k3, PS)	90% and 97%
GGTTTTAATACCCTTC (sugars k3 d10 k3, PS)	51%
GTAAAAACAGGTCATC (sugars k3 d10 k3, PS)	21%
GTAAACCTGTGGTGGT (sugars k3 d10 k3, PS)	56% and 60%

Sequence	target mRNA inhibition
GTAACCTATTGACTAT (sugars k3 d10 k3, PS)	33%
GTACATTTTGCCCTTA (sugars k3 d10 k3, PS)	64% and 45%
GTACGAAACTCCCCCA (sugars k3 d10 k3, PS)	38%
GTAGATTCCGTAACTT (sugars k3 d10 k3, PS)	73% and 54% and 50%
GTATTACTCTAATCAC (sugars k3 d10 k3, PS)	34%
GTATTATAATAGAGCT (sugars k3 d10 k3, PS)	4%
GTCAAGACAACTGCAT (sugars k3 d10 k3, PS)	3%
GTCAAGCTCCTGACAA (sugars k3 d10 k3, PS)	33%
GTCACTGGATAAGTAT (sugars k3 d10 k3, PS)	48%
GTCTACAAGTTACATG (sugars k3 d10 k3, PS)	13%
GTCTCATACACTCACT (sugars k3 d10 k3, PS)	-4%
GTCTTAGCAGAGAATT (sugars k3 d10 k3, PS)	47%
GTGAATTCAACTGGAA (sugars k3 d10 k3, PS)	50%
GTGGCCTTTTAAAGTA (sugars k3 d10 k3, PS)	15%
GTGTAGCACCTGGGTC (sugars k3 d10 k3, PS)	64% and 46%
GTGTGATAGTTCAGGG (sugars k3 d10 k3, PS)	8%
GTTAACAATTTGCAGG (sugars k3 d10 k3, PS)	40%
GTTACACCTTGAGTCA (sugars k3 d10 k3, PS)	53%
GTTACCATAAGTAAGT (sugars k3 d10 k3, PS)	2%
GTTACTCCAGCATAAA (sugars k3 d10 k3, PS)	0%
GTTATGACTCAGAAGA (sugars k3 d10 k3, PS)	26%
GTTCGCAGACAAAGTT (sugars k3 d10 k3, PS)	36%

Reference: the OligoGym collection
